ChEMBL document CHEMBL3877260, “Synthesis and evaluation of C9 alkoxy analogues of (-)-stepholidine as dopamine receptor ligands” (Eur J Med Chem, 2017)
pIC50, pKi: −log10 of the molar value.

Columns and labels:
D(1A) dopamine receptor [1] = molecular target: T1, D(1A) dopamine receptor (Homo sapiens, UniProt P21728); assay: Displacement of [3H]SCH23390 from human D1 receptor expressed in HEKT cell membranes at 10 uM after 90 mins by microbeta scintillation counting method relative to control
D(2) dopamine receptor [2] = molecular target: T2, D(2) dopamine receptor (Homo sapiens, UniProt P14416); assay: Displacement of [3H]N-methylspiperone from human D2 receptor expressed in HEKT cell membranes at 10 uM after 90 mins by microbeta scintillation counting method relative to control; conditions: HEKT cell membranes expressing human D2 receptor, probe [3H]N-methylspiperone
T2 sequence (P14416 whole entry): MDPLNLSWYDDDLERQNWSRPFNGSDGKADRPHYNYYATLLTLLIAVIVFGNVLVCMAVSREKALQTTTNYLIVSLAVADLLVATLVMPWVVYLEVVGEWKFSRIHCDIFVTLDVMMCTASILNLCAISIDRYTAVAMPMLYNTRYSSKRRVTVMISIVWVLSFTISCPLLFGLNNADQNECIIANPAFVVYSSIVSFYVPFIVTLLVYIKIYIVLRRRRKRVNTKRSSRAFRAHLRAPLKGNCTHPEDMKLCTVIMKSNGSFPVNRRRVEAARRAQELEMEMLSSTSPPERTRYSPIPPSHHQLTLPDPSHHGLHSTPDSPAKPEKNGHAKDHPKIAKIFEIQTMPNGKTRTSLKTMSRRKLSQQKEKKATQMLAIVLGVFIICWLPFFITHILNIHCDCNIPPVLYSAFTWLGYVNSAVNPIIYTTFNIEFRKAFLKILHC

D(3) dopamine receptor [3] = molecular target: T3, D(3) dopamine receptor (Homo sapiens, UniProt P35462); assay: Displacement of [3H]N-methylspiperone from human D3 receptor expressed in HEKT cell membranes at 10 uM after 90 mins by microbeta scintillation counting method relative to control
T3 sequence (P35462 whole entry): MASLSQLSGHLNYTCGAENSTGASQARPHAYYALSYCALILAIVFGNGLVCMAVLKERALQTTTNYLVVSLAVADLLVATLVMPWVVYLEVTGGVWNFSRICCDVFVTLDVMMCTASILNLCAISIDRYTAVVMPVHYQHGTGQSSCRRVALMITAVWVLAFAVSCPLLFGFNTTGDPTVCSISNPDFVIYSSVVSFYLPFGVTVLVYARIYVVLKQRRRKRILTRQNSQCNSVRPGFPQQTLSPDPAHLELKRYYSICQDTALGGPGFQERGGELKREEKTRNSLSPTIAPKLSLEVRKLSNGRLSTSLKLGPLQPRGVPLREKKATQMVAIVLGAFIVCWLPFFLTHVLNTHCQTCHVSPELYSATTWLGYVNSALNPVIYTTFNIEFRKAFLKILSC

D(1A) dopamine receptor [4] = molecular target: T1, D(1A) dopamine receptor; assay: Displacement of [3H]SCH23390 from human D1 receptor expressed in HEKT cell membranes after 90 mins by microbeta scintillation counting method
D(2) dopamine receptor [5] = molecular target: T2, D(2) dopamine receptor; assay: Displacement of [3H]N-methylspiperone from human D2 receptor expressed in HEKT cell membranes after 90 mins by microbeta scintillation counting method
D(3) dopamine receptor [6] = molecular target: T3, D(3) dopamine receptor; assay: Displacement of [3H]N-methylspiperone from human D3 receptor expressed in HEKT cell membranes after 90 mins by microbeta scintillation counting method
[7] = Selectivity index, ratio of Ki for human D2 receptor expressed in HEKT cell membranes to Ki for human D1 receptor expressed in HEKT cell membranes
[8] = Antagonist activity at rhesus monkey D1 receptor expressed in HEK293 cells assessed as inhibition of dopamine-induced [35S]GTPgammaS binding; assay type: cell-based, Macaca mulatta
D(3) dopamine receptor [9] = molecular target: T3, D(3) dopamine receptor; assay: Antagonist activity at human D3 receptor expressed in CHO cells assessed as inhibition of dopamine-induced [35S]GTPgammaS binding; assay type: functional, cell-based

T1 sequence (P21728 whole entry): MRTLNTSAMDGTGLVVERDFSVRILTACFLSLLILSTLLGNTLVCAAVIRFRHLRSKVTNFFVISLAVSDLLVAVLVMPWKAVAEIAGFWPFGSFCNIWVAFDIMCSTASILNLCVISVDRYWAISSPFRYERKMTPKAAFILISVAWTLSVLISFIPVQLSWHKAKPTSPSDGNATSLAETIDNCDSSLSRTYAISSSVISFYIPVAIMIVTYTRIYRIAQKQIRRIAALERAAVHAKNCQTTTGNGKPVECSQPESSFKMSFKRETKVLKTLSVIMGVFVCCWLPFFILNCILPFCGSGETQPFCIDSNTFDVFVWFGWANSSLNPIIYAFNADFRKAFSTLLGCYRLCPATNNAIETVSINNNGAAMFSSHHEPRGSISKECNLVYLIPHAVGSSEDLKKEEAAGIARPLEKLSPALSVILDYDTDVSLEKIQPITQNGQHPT

Compound | inhibition (D(1A) dopamine receptor [1]) [%] | inhibition at 1.5 h, 10 µM (D(2) dopamine receptor [2]) [%] | inhibition (D(3) dopamine receptor [3]) [%] | pKi (D(1A) dopamine receptor [4]) | pKi (D(2) dopamine receptor [5]) | pKi (D(3) dopamine receptor [6]) | pIC50 [8] | Ke (D(3) dopamine receptor [9]) [nM] | Ratio Ki [7]
CCCCCCOc1c(O)cc(Br)c2c1CN1CCc3cc(OC)c(O)cc3[C@@H]1C2 | > 50 | > 50 | > 50 | 7.17 | 6.14 | 5.50 | – | – | >10
CCCCCOc1c(O)ccc2c1CN1CCc3cc(OC)c(O)cc3[C@@H]1C2 | – | > 50 | > 50 | – | 7.64 | 5.49 | – | – | –
CCCCOc1c(O)ccc2c1CN1CCc3cc(OC)c(O)cc3[C@@H]1C2 | – | < 50 | > 50 | – | – | – | – | – | –
COc1cc2c(cc1O)[C@@H]1Cc3ccc(O)c(OC)c3CN1CC2 [STEPHOLIDINE] | > 50 | > 50 | > 50 | – | – | – | – | – | –
CCC(C)Oc1c(O)ccc2c1CN1CCc3cc(OC)c(O)cc3[C@@H]1C2 (some centres undefined) | – | > 50 | – | 7.19 | 6.98 | – | – | – | –
CCCCCCOc1c(O)ccc2c1CN1CCc3cc(OC)c(O)cc3[C@@H]1C2 | > 50 | < 50 | > 50 | 7.11 | – | 6.71 | – | – | –

Continued, in another order:

inhibition (D(1A) dopamine receptor [1]) [%] | inhibition at 1.5 h, 10 µM (D(2) dopamine receptor [2]) [%] | inhibition (D(3) dopamine receptor [3]) [%] | pKi (D(1A) dopamine receptor [4]) | pKi (D(2) dopamine receptor [5]) | pKi (D(3) dopamine receptor [6]) | pIC50 [8] | Ke (D(3) dopamine receptor [9]) [nM] | Compound | Ratio Ki [7]
> 50 | > 50 | > 50 | 7.92 | 7.39 | 6.76 | – | – | CCCOc1c(O)ccc2c1CN1CCc3cc(OC)c(O)cc3[C@@H]1C2 | –
> 50 | < 50 | > 50 | 8.89 | – | 6.43 | – | – | CCOc1c(O)cc(Br)c2c1CN1CCc3cc(OC)c(O)cc3[C@@H]1C2 | >10
> 50 | < 50 | > 50 | 8.38 | – | 6.14 | – | – | COCCOc1c(O)cc(Br)c2c1CN1CCc3cc(OC)c(O)cc3[C@@H]1C2 | –
> 50 | > 50 | > 50 | 8.01 | 6.48 | 5.68 | – | – | CCC(C)Oc1c(O)cc(Br)c2c1CN1CCc3cc(OC)c(O)cc3[C@@H]1C2 (some centres undefined) | –
> 50 | > 50 | > 50 | 7.49 | 6.40 | – | – | – | CCCCCOc1c(O)cc(Br)c2c1CN1CCc3cc(OC)c(O)cc3[C@@H]1C2 | –
> 50 | > 50 | > 50 | 8.66 | 7.15 | – | – | – | CCCOc1c(O)cc(Br)c2c1CN1CCc3cc(OC)c(O)cc3[C@@H]1C2 | –
> 50 | > 50 | > 50 | 8.11 | 7.74 | – | – | – | COCCOc1c(O)ccc2c1CN1CCc3cc(OC)c(O)cc3[C@@H]1C2 | –
> 50 | > 50 | > 50 | 8.64 | 6.97 | – | – | – | CCCCOc1c(O)cc(Br)c2c1CN1CCc3cc(OC)c(O)cc3[C@@H]1C2 | –
> 50 | < 50 | > 50 | 8.28 | – | 6.97 | 6.38 | 3.15 | CCOc1c(O)ccc2c1CN1CCc3cc(OC)c(O)cc3[C@@H]1C2 | –
